Data on one compound can be found in patent US20070003987A1, “Screening method for substance binding to merozoite surface protein-1/42” (priority 2003, published 2007).

The test system of the assay is P. falciparum (FCB-1). Put plainly: growth inhibition assay by [3H] hypoxanthine uptake. The note with it: Plasmodium falciparum, Erythrocyte, read-out: IC50, inhibition of erythrocyte invasion ([3H] hypoxanthine incorporation, FIG. 2). The assay is classed as cell-based, Plasmodium falciparum. Here is the method:
Asexual blood stages of P. falciparum (FCB-1) were maintained at 37° C. in RPMI 1640/Albumax medium (Gibco) supplemented with 2 mM L-glutamine as previously described (Blackman, 1994 Methods Cell Biol. 45, 213-220). Cultures were gassed with 7% CO2, 5% O2 and 88% N2 and maintained by routine passage in fresh human erythrocytes. Parasites were synchronised by Percoll and sorbitol treatment (Holder & Freeman, 1982 J. Exp. Med. 156, 1528-1538); schizonts were purified by centrifugation over Percoll and then returned to culture in the presence of fresh erythrocytes. After 4 h, during which time released merozoites invaded erythrocytes, the cells were treated with 5% sorbitol for 10 min to lyse the residual schizonts, before returning the parasites to culture.
Suramin and NTS were also assayed for P. falciparum growth inhibition using [^3H] hypoxanthine uptake (generally as described by Desjardins et al, 1979 Antimicrob. Agents Chemother. 16, 710-718). Serial dilutions of the compounds in 96-well plates were incubated at 37° C. with purified mature schizonts at a final parasitaemia of ^˜0.5% and a haematrocrit of ^˜2% in triplicate cultures. […] The filters were wetted with scintillation cocktail and the bound radioactivity counted in a β-counter. […] The amount of radioactivity in each sample was expressed as a percentage of activity in the control wells containing no compound. […]

In the case of `Cc1ccc(C(=O)Nc2ccc(S(=O)(=O)O)c3cc(S(=O)(=O)O)cc(S(=O)(=O)O)c23)cc1NC(=O)c1cccc(NC(=O)Nc2cccc(C(=O)Nc3cc(C(=O)Nc4ccc(S(=O)(=O)O)c5cc(S(=O)(=O)O)cc(S(=O)(=O)O)c45)ccc3C)c2)c1` [suramin], the IC50 is 60 µM.
